Like-named read-outs stand apart in the source and are kept apart here.

Assay [1] has as its target IR site 2. Particulars: ref Kiselyov et al., 2009; read-out: K d, IR low-affinity site 2; cited from earlier work. The source says: (§1) Extensive mutagenesis and cross-linking studies of both insulin and IR led to the discovery and mapping of two sites on the IR that are responsible for engaging with the hormone. […] The hormone–receptor interaction events are comp ...
The conditions of assay [2]: ITC; n = 8; ref Antolikova et al. (2011); listed as wild-type human insulin; read-out: K diss (dimer↔monomer); cited from earlier work.
A short description of assay [3]: Isothermal microcalorimetry (ITC) of dimerization (dimer-monomer dissociation). The class given is physicochemical. Particulars: mean ± spread, n = 3, read-out: K diss (dimer↔monomer).
Description: Investigations of the dimerization abilities of selected insulin analogues were performed as described in detail previously (Antolikova et al., 2011[▶]).
Assay [4] deals with both rat IR-A and IR-B isoforms. Particulars: rat adipocytes, ref Jiracek et al. (2010), cited from earlier work. The source says: In the cases of [PheB26]-insulin and [GlyB26]-insulin, we aimed to investigate the structural consequences of the loss of the TyrB26 side-chain hydroxyl group or the whole TyrB26 side chain, respectively. The affinities of the analogues for the IR-A isoform (IM-9 lymphocytes) and of selected ...

Assay [5] deals with IR-B. Particulars: single mutation; ref Glendorf et al. (2011); cited from earlier work. The source says:
The IR-B:IR-A specificity ratio of insulin analogues is of considerable interest owing to IR-B being the dominant (∼90–95%) receptor isoform in the liver (Moller et al., 1989[▶]). This, together with the anatomic proximity of the pancreas and the liver (short hepatic portal vein connectivity), makes the liver the major glucose homeostatic organ.

Assay [6] has as its system IR. Particulars: ref Žáková et al., 2013; cited from earlier work. The source says: The full-length insulin B26-site mutants AsnB26, AspB26, PheB26, GlnB26 and GlyB26 have been prepared and characterized. […] In the cases of [PheB26]-insulin and [GlyB26]-insulin, we aimed to investigate the structural consequences of the loss of the TyrB26 side-chain hydroxyl group or the whole TyrB26 side chain, respectively. The affinities of the analogues for the IR-A isoform (IM-9 lymphocytes) and of selected ...

For assay [7], the system named is both rat IR-A and IR-B isoforms. Description: Receptor binding, rat adipocyte plasma membranes. How it is done:
Receptor-binding studies with the insulin receptor in plasma membranes containing both rat IR-A and IR-B isoforms prepared from epididymal adipose tissue of adult male Wistar rats were performed and analyzed according to Žáková et al. (2008[▶]). Binding data were analyzed using GraphPad Prism 5. Half-maximal inhibition values of binding of [^125I]-insulin to the receptor (IC50) were obtained using a nonlinear regression method and a one-site fitting program.

For assay [8], the target named is IR-A. Particulars: ref Morcavallo et al., 2012; read-out: K d for IR-A; cited from earlier work.
Description: as §1

Regarding Human insulin, the Kd in assay [1] is around 400 nM; in assay [2], around 9000 nM.

Consider [PheB26]-insulin, for which the Kd in assay [3] amounted to 27200 ± 7400 nM. Besides, the entries for the “Potency (relative receptor-binding affinity), rat IR-A and IR-B” value in assay [4] and in assay [4] (listed as PheB26) were 46 ^¶ % and “less than 50%”, respectively.

For the substance [AsnB25]-insulin, in assay [5], the IR-B specificity result is “doubling of the IR-B specificity”.

[GluB26,LysB28,ProB29]-insulin: in assay [6], the “binding affinity relative to human insulin” value is reported as 193%.

On to [GlyB26]-insulin, for which, in assay [7] ((IC50 of human insulin/IC50 of analogue) × 100, rat adipocytes), the “Potency (relative receptor-binding affinity), rat IR-A and IR-B” value is around 70%. In addition, the IC50 in assay [7] (half-maximal inhibition of binding of human 125I-TyrA14 insulin, rat adipose plasma membranes, mean ± SE (n), SEM, read-out: IC50 ± SE for both rat IR-A and IR-B in rat adipocytes) worked out at 1.16 ± 0.12 nM.

Consider insulin-like growth factor II [IGF-II], for which the Kd in assay [8] was around 4 nM.

The values above are taken from article PMC4188015 (Acta Crystallographica Section D: Biological Crystallography, 2014).
